Molecules are shown by their SMILES. Bounds are passed on as bounds.

For three compounds, MBIC, MIC and CC50 results are on record in patent publication US20110098323A1, “INHIBITORS OF BACTERIAL BIOFILM FORMATION” (MICROBIOTIX, INC., priority 2009, published 2011).

One data set deals with S. epidermidis 18972. Kind of data set: MBIC/MIC secondary assay (crystal violet biofilm staining / OD600 growth). The data set is classed as cell-based, Staphylococcus epidermidis. Particulars: S. epidermidis 18972, Table 2; for MBIC: lowest concentration inhibiting biofilm formation ≧80%; for MIC: Staphylococcus epidermidis, lowest concentration inhibiting growth ≧80%, read-out: MIC. The method, then: Assays for detecting and measuring bacterial biofilm formation are known in the art. An example of a biofilm formation assay useful in detecting and characterizing biofilm inhibitor compounds is described in Example 1, infra. Briefly, bacterial cells are inoculated into growth medium in individual wells of a 96-well assay plate in the presence or absence of a compound (known biofilm inhibitor or test compound). After incubation for a specified time, growth medium and non-biofilm bacterial cells are removed from each of the wells. The bacterial cells in any biofilms that are adhered to the surface of a well are fixed by addition of ethanol. The ethanol is removed, and the fixed biofilm bacteria cells are stained with crystal violet (CV). The intensity of CV staining is directly correlated with bacterial biofilm formation and is measured in the wells by reading the optical density at 600 nm (OD600). The difference in biofilm formation between untreated control and treated cultures provides an indication of relative biofilm inhibition activity (anti-biofilm activity). Use of different concentrations of an inhibitor in multiple and otherwise duplicate cultures permits determination of a compound's Minimal Biofilm Inhibitory Concentration (MBIC), which is defined herein as the lowest concentration of a compound that inhibits biofilm formation by at least 80% (i.e., ≧80%) compared to untreated control cultures.
A higher throughput was achieved by formatting the assay for use in flat-bottomed 96-well assay plates (Costar 3590 assay plates, Corning Life Sciences, Lowell, Mass.). The biofilm cultures grew on the bottoms of each well in a surface attached mode. In each assay plate, columns 1 and 12 contained untreated cultures, which served as negative controls (0% biofilm inhibition). Each of the assay wells in columns 2-11 contained a unique small molecule from the Microbiotix Screening Library (MSL) at a final concentration of 100 μM. Assay plates were inoculated with 200 μl/well of a culture of Staphylococcus pidermidis 18972 in 0.5×Tryptic Soy Broth (TSB; Becton Dickinson, Franklin Lakes, N.J.) in which the concentration of glucose was adjusted to 0.25% (w/v). The bacterial inocula were prepared by making a 1:100 dilution of an overnight culture grown in TSB in the media used for the screen. After inoculation, assay plates were sealed with foil tape and incubated at 37° C. for 18-20 hours (h). The optical density at 600 nm (OD600) was measured for each well using a VICTOR2V™ multiplate reader (Perkin Elmer, Waltham, Mass.) in order to quantify overall bacterial growth. The assay plates were processed to remove bacterial growth media and non-biofilm cells from the bottom of each assay well. This was accomplished by using a BioTek ELx405™ plate washer (BioTek Instruments, Inc., Winooski, Vt.). Biofilm bacteria were fixed by addition of 50 μl of 95% ethanol for 30 minutes (min). The ethanol was removed, and the fixed biofilm cultures were stained with 50 μl of 0.06% crystal violet (CV) for 60 min. Excess CV was removed by repeated washes using the BioTek ELx405™ plate washer. The amount of CV bound to each assay well was quantified by measuring OD600 using a VICTOR2V™ plate reader (Perkin Elmer).
A secondary assay provided a quantitative measure of both anti-biofilm activity and antibacterial activity in terms of the Minimal Biofilm Inhibitory Concentration (MBIC) and the Minimal Inhibitory Concentration (MIC), respectively. The MBIC and MIC are defined as the lowest compound concentrations that inhibit biofilm formation and bacterial growth, respectively, by at least 80% (i.e., ≧80%). The MBIC/MIC assay is formatted in a manner that is similar to the Microbroth dilution assays described by the Clinical and Laboratory Standards Institute (CLSI; formerly NCCLS) in protocol M7-A7. The growth conditions were optimized for biofilm growth in 96-well assay plates such that the resulting CV staining was within the linear range of detection. […]

In a further data set the test system is S. aureus ATCC 35556. Kind of data set: MBIC/MIC secondary assay. The data set is classed as cell-based, Staphylococcus aureus. The settings on record: S. aureus ATCC 35556, Table 2; for MIC: Staphylococcus aureus, ATCC35556, read-out: MIC.
A short description of data set [1]: In vitro cytotoxicity assay (CC50), Alamar Blue. Particulars: human, HeLa cells, 10% Fetal Bovine Serum. The data set is classed as cell-based. The method, then:
Validated hits were tested for general cytotoxicity against a mammalian cell line. In this assay, an assay plate was seeded with an immortalized human cell line (HeLa) and exposed to a series of two-fold dilutions of each test compound for 72 hours in standard media containing 10% Fetal Bovine Serum. After exposure to the compounds, the cellular viability was assessed using Alamar Blue™ (AccuMed International, Inc.), an oxidation-reduction indicator that is useful for quantitatively measuring cell-mediated cytotoxicity. Alamar Blue reduction was quantified using fluorescence measurements, and the data were analyzed using a two-parameter curve-fitting program (Assay Explorer, Elsevier MDL, San Rafael, Calif.) to determine the CC50 value, i.e., the compound concentration that decreases cellular viability by 50%. Compounds with CC50/MBIC≧50 were given highest priority. Validated hits that met the criteria for high priority were re-ordered from the original vendor and re-tested.
In general terms: Resazurin is reduced to fluorescent resorufin, in cell work by metabolically active cells.

Turning to `CCOc1cc(/C=C2\SC(=S)N(c3ccc(Br)cc3)C2=O)ccc1O` [MSL-049293, 3-(4-bromophenyl)-5-(3-ethoxy-4-hydroxybenzylidene)-2-thioxothiazolidin-4-one], in the data set on S. epidermidis 18972, the MBIC came to 12.5 µM and the MIC was at least 100 µM. In the data set on S. aureus ATCC 35556, the MBIC stood at 1.5625 µM and the MIC was at least 100 µM. This compound yielded a CC50 at 72 h in data set [1] of at least 100 µM.

With `COc1cc(/C=C2\SC(=S)N(c3cccc(Cl)c3)C2=O)cc(Br)c1O` [MSL-049731, 3-(3-chlorophenyl)-5-(3-bromo-4-hydroxy-5-methoxybenzylidene)-2-thioxothiazolidin-4-one], in the data set with S. epidermidis 18972, the MBIC was determined as 25 µM and the MIC was at least 100 µM. Also, in the data set on S. aureus ATCC 35556, the MBIC came to 6.25 µM and the MIC was at least 100 µM.

As for `COc1ccc(C2=C/C(=C/c3ccc(O)c(OC)c3)C(=O)O2)c(OC)c1` [MSL-051097, 3-(4-hydroxy-3-methoxybenzylidene)-5-(2,4-dimethoxyphenyl)furan-2(3H)-one], in the data set on S. epidermidis 18972, the MBIC worked out at 25 µM and the MIC is at least 100 µM. In the data set on S. aureus ATCC 35556, the MBIC came out at 6.25 µM and the MIC was at least 100 µM. This compound came in with a CC50 at 72 h in data set [1] of 29.4 µM.

What is called CC50 is the concentration at which the toxic effect on the cells reaches its halfway point. Read a low CC50 as greater toxicity to the cells.
